Test results: PMC13276840, “Deacetylation of β‑Mannans by Two Complementary Carbohydrate Esterases from the Human Gut Microbe Bacteroides cellulosilyticus” (Biochemistry, 2026)

How the values were obtained:
BcCE7 = target: T1, BcCE7 (Bacteroides cellulosilyticus, UniProt E2NDM1); assay: transacetylation, MALDI-ToF MS; format: biochemical; details: acyl acceptor with vinyl acetate donor, […] enzyme, […] sodium phosphate pH […] °C
T1 construct: gene BACCELL_02381; N-terminal signal peptide removed, His tag (removal not mentioned), pET28a(+), synthetic gene, E. coli BL21 STAR
T1 sequence (E2NDM1 7-414 limits assumed): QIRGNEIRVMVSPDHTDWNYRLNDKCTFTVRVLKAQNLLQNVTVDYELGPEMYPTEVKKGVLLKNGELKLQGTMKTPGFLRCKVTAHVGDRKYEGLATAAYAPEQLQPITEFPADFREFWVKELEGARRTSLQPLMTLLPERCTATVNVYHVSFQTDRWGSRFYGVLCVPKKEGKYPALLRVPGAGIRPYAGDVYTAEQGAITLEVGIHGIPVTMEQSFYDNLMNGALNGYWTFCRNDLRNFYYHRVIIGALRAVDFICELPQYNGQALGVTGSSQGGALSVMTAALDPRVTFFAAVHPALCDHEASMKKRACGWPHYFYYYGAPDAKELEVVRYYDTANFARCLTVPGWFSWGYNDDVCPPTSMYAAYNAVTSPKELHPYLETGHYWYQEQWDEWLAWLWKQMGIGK

BcCE25 = target: T2, BcCE25 (Bacteroides cellulosilyticus, UniProt E2NCW7); assay: transacetylation, MALDI-ToF MS and NMR; format: biochemical; details: acyl acceptor with vinyl acetate donor, 200 nM enzyme, 10 mM sodium phosphate pH 5.9, 25 °C
T2 construct: gene BACCELL_02125; N-terminal signal peptide removed, His tag (removal not mentioned), pET30a(+), synthetic gene, E. coli BL21 STAR
T2 sequence (E2NCW7 20-263): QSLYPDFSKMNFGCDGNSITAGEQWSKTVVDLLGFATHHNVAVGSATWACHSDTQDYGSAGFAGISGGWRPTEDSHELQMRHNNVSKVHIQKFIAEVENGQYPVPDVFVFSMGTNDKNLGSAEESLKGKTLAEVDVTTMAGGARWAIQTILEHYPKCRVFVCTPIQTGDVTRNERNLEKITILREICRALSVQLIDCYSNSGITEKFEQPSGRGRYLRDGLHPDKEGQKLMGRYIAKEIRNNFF

OC[C@H]1O[C@@H](O[C@H]2[C@H](O)[C@H](O)[C@H](O[C@H]3[C@H](O)[C@H](O)[C@H](O[C@H]4[C@H](O)[C@H](O)C(O)O[C@@H]4CO)O[C@@H]3CO)O[C@@H]2CO)[C@@H](O)[C@@H](O)[C@@H]1O (some centres unmarked) [mannotetraose] was tested, and the “transacetylation, MALDI-ToF MS” value (BcCE7) was “On mannotetraose, BcCE7 transferred mainly one acetyl group” and the “transacetylation, MALDI-ToF MS and NMR” value (BcCE25) was “BcCE25 transferred up to three acetylations”.
